The METLIN SMRT retention time set (Domingo-Almenara et al. 2019)

Assay: gradient 5% acetonitrile 3 min, to 50% in 2 min, to 85% in 15 min, held 3 min, 100 µL/min
Conditions: column: Zorbax Extend-C18 2.1 x 50 mm; eluents: water / acetonitrile, 0.1% formic acid
Summary of the method: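 In both positive and negative ionization mode, a quadrupole time-of-flight mass spectrometer coupled to HPLC analyzed pure standards run in mixtures of ~100 molecules. The Zorbax Extend-C18 column (2.1 × 50 mm, 1.8 μm) was operated at 100 μL/min with water and acetonitrile, each containing 0.1% formic acid. The dead volume was 40 μL and the dwell volume 900 μL. Retention time came from adduct peaks that were computationally picked and individually inspected by hand.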

Row | Compound | RP-LC retention time [s]
1 | COC(=O)c1cc(-c2cccc(N)c2)nc2ccccc12 | 749
2 | Cc1nnc(NC(=O)Cn2cccn2)s1 | 562
3 | COc1ccc(C(=O)N2CCc3c(c(C(=O)N4CCCC(C(=O)NC5CC5)C4)nn3C)C2)c(OC)c1 (stereo not given) | 638
4 | O=C(NCCOc1cccc(C(F)(F)F)c1)C1CCCC1 | 880
5 | Cc1ccc(N2CCC(NC(=O)Nc3cccc(C)c3C)C2=O)cc1 (stereo not given) | 945
6 | CCC(C)NC(=O)c1c(C)sc2ccn(Cc3ccc(F)cc3)c(=O)c12 (stereo not given) | 929
7 | COc1ccc(NC(=O)c2cn3c(n2)CCCC3)c(OC)c1 | 610
8 | O=c1ccc(-c2cccc(Br)c2)nn1Cc1nc(-c2cccs2)no1 | 1020
9 | Cc1ccc([C@@H]2O[C@H](CO)[C@@H](O)[C@H](O)[C@H]2O)cc1Cc1ccc(-c2ccc(F)cc2)s1 | 847
10 | Cc1ccccc1NC(=O)C1CC(=O)N(c2ccc3c(c2)CCN3C(=O)C2CC2)C1 (stereo not given) | 717
11 | CCc1ccc(C2=C(C)C(N3CCCN(C(=O)NC4CCCC4)CC3)=NS2(=O)=O)cc1 | 865
12 | Cc1cc(C)cc(C(=O)NC2CCN(c3cc(-c4ccc(Cl)cc4)[nH]n3)C2)c1 (stereo not given) | 883
13 | Cn1c(=O)c2cc(C(=O)Nc3ccccc3Cl)cnc2n(-c2ccccc2)c1=O | 882
14 | COCc1nncn1C1CCN(S(=O)(=O)c2ccc(C)c(Cl)c2)CC1 | 770
15 | O=C(Cn1nc(N2CCOCC2)c2ccccc2c1=O)Nc1ccccc1C(F)(F)F | 804
16 | CC1CCN(S(=O)(=O)c2ccc(-c3nnc(C(=O)NCCCN4CCCC4)o3)cc2)CC1 | 689
17 | CCOc1ccccc1NC(=O)COc1nc(CC)nc2ccccc12 | 884
18 | Cc1cc(N2CCN(C)CC2)nc2ccc(NC(=S)NCc3ccc4c(c3)OCO4)cc12 | 586
19 | O=C(Nc1nccs1)C1CCN(C(=O)Cn2ccc3ccccc32)CC1 | 719
20 | Cc1cc(Cl)ccc1NC(=O)N1CCN(C2=CC3=NCC(C)N3C=N2)CC1 (stereo not given) | 814
21 | O=c1ccc(-c2ccc(F)cc2)nn1Cc1nc(-c2cccc(Cl)c2)no1 | 1090
22 | O=C(Cn1c(=O)cc(-c2nc(C3CC3)no2)c2ccccc21)NCc1ccc(F)cc1 | 923
23 | CC(=O)Nc1nnc(SCc2nnc(-c3ccccc3C)o2)s1 | 740

Row | Compound | RP-LC retention time [s]
24 | CC1=NS(=O)(=O)N(Cc2ccccc2)C=C1C(=O)OCc1ccc(C(C)(C)C)cc1 | 1320
25 | CCc1noc(C2(NC(=O)C(CC)c3ccccc3)CCCCC2)n1 (stereo not given) | 1090
26 | CCOC(=O)COc1ccccc1C1CC(c2ccc(Br)cc2)=NN1C(C)=O (stereo not given) | 1050
27 | CCS(=O)(=O)N1CC(=O)N(c2ccc(C)cc2C)C(C)(C(=O)NCc2ccc(F)cc2)C1 (stereo not given) | 857
28 | CCCc1noc(-c2nc(-c3ccccc3F)no2)n1 | 1090
29 | CC(CCc1ccccc1)NC(=O)c1cc2sccc2n1Cc1ccc(F)cc1 (stereo not given) | 1190
30 | Cc1cccc(Nc2c(-c3ccccc3)nc3nc(C)cc(C)n23)c1 | 741
31 | CCCCOC(=O)c1cccnc1 | 874
32 | CC(NC(=O)Cc1nnc(-c2cnccn2)o1)c1ccc(F)cc1 (stereo not given) | 681
33 | Cc1cc(N2C=NS(=O)(=O)c3cccnc32)ccc1F | 807
34 | CCOc1ccc(N2CCCCn3c2nc2c3c(=O)n(CC)c(=O)n2C)cc1 | 902
35 | CCC(=O)N1CCCc2ccc(NC(=O)c3cccs3)cc21 | 827
36 | CC(C)CC(=O)N1CCC(CC(=O)N2CCOCC2)C1 (stereo not given) | 622
37 | O=C(NC1CC1)[C@@H]1C[C@H](Oc2cccnc2)CN1C(=O)c1ccoc1 | 546
38 | COc1ccc(-c2noc(C3CCCN3C(=O)C3CCC3)n2)cc1 (stereo not given) | 899
39 | O=C(NCCCN1CCOC(c2ccccc2)C1)NC1CCCCC1 (stereo not given) | 584
40 | CCc1ccc(S(=O)(=O)N2CCC(n3cnnc3C3CC3)CC2)cc1 | 772
41 | COc1ccc(CN2CCC3(CCC3O)CC2)cc1OC (stereo not given) | 562
42 | CC(=O)N1CCc2sc(S(=O)(=O)N3CCN(c4ccccc4Cl)CC3)cc2C1 | 945
43 | CCOC(=O)c1[nH]c(C)c(CCC(=O)N2CCC(C(=O)NCCN3CCCCC3)CC2)c1C | 590
44 | Cc1cc(F)ccc1NC(=O)C1CCN(C(=O)c2ncn3c2COC(c2ccc(F)cc2)C3)CC1 (stereo not given) | 736
45 | Cc1nc(S(=O)(=O)N2CCC(C(=O)N3CCN(c4ccc(Cl)cc4)CC3)CC2)cn1C | 859
46 | CCOC(=O)C1C(=O)C(C(=O)OCC)C(c2ccccc2)NC1c1ccccc1 (stereo not given) | 832

Row | Compound | RP-LC retention time [s]
47 | NNC(=O)CSc1nc2scc(-c3ccccc3)c2c(=O)n1-c1ccccc1 | 838
48 | Cc1ccc(-c2ccc3nn(CC(=O)Nc4ccc(C)cc4Br)c(=O)n3n2)cc1 | 960
49 | COc1ccc(CNC2=NCCNC23CCN(S(=O)(=O)c2ccc(CC(C)C)cc2)CC3)cc1 | 878
50 | O=C(NC1CCN(c2cc(-c3cccs3)[nH]n2)C1)c1ccc(F)cc1Cl (stereo not given) | 726
51 | CC(NC(=O)c1ccco1)c1nc(-c2ccc(-c3csc(-c4ccccc4)n3)cc2)no1 (stereo not given) | 1200
52 | CNC(=O)c1noc([C@@H]2CC(F)(F)CN2C(=O)C2CC=CC2)n1 | 698
53 | COc1ccc(-c2cn3c(CC(=O)N4CCN(c5ccccc5)CC4)csc3n2)cc1OC | 730
54 | OC1(c2ccc(Cl)cc2)CCN(Cc2c[nH]c3ccccc23)CC1 | 736
55 | O=C(/C=C/c1cccnc1)/C=C/c1cccnc1 | 635
56 | CCc1nc2cc(N3CCC(C(=O)NC(C)CC)CC3)cnc2nc1CC (stereo not given) | 758
57 | CCC(=O)N1CCc2c(C(=O)NC3CCCC3)cccc21 | 765
58 | COc1ccc(N2CCN(c3ccc(-c4nc(-c5cccc(F)c5)no4)cn3)CC2)cc1 | 1310
59 | O=C(NCc1csc(C2CCCN(C(=O)C3CCCC3)C2)n1)C1CC1 (stereo not given) | 671
60 | O=C([C@@H]1C[C@H](Oc2ccccc2)CN1C(=O)C1CC=CC1)N1CCCC1 | 759
61 | O=C(Cn1cccc(S(=O)(=O)N2CCOCC2)c1=O)NCc1ccc(Cl)cc1 | 666
62 | CCCCc1ccc(N2C=C(C#N)S(=O)(=O)c3ccccc32)cc1 | 1150
63 | CN(C)c1ccc(NC(=O)COc2ccc(-c3nnc4n3CCCC4)cc2)cc1 | 585
64 | NC(=O)CCC(C(=O)O)N1C(=O)c2ccc(O)cc2C1=O (stereo not given) | 620
65 | COCCN1CCn2cc(S(=O)(=O)Nc3ccc(C)cc3)cc2C1=O | 715
66 | O=C(N[C@H]1C[C@@H]2C[C@H]1CN2C(=O)c1ccc2c(c1)OCO2)c1ccccc1 | 700
67 | Cc1cc(NC(=O)C(=O)c2cccn2C)ccc1Br | 1120
68 | CC(C)CNC(=O)CN1CCN(Cc2ccc(F)cc2)C1=O | 742
69 | COCCCn1c(=O)c2ccccc2n(Cc2nc(-c3ccc(F)cc3)no2)c1=O | 1010

Row | Compound | RP-LC retention time [s]
70 | Oc1ccc(Nc2ccnc3cc(Cl)ccc23)cc1 | 665
71 | COc1ccc(NC(=O)N2c3ccccc3CC2c2nc(C3CC3)no2)cc1OC (stereo not given) | 933
72 | CC(C)NC[C@@H](C(=O)N1CCN(c2ncnc3c2[C@H](C)C[C@H]3O)CC1)c1ccc(Cl)cc1 | 610
73 | COC(=O)c1c(NCc2ccc(F)cc2F)c2cc(F)ccc2[nH]c1=O | 769
74 | CCCn1c(=O)c(N2CCC(NC(=O)Nc3ccc4c(c3)OCCO4)CC2)nc2ccccc21 | 933
75 | Cn1nc(C(=O)N2CCCC2)c2c1CCN(C(=O)Nc1cccc(Br)c1)C2 | 804
76 | Cn1nc(C(=O)N2CCCCC2)c2c1CCN(C(=O)CCC(=O)NCCN1CCCCC1)C2 | 586
77 | O=C(Cn1cccc1-c1nnc(-c2ccccc2)o1)N1CCN(c2cccc(Cl)c2)CC1 | 1120
78 | Cc1cc(C)c(S(=O)(=O)N(CC(=O)N2CCNCC2)CC2CCCO2)cc1C (stereo not given) | 704
79 | O=C(NCc1csc(C2CCCN(C(=O)C3CC3)C2)n1)C1CCC1 (stereo not given) | 667
80 | Cc1oc2ccn(Cc3ccccc3F)c(=O)c2c1C(=O)NCc1cccs1 | 1030
81 | COCCNC(=O)c1ccccc1-c1ocnc1C(=O)OC | 611
82 | O=S(=O)(c1cccc2nsnc12)N1CCCn2nc(-c3cccnc3)cc2C1 | 627
83 | CCOc1ccnc2c1c(=O)n(CC(=O)Nc1cccc(C(F)(F)F)c1)c(=O)n2C | 782
84 | Cc1ccc(CN(C(=O)C(C)Oc2cccc(C)c2C)C2CCS(=O)(=O)C2)o1 (stereo not given) | 977
85 | CCC(C(=O)N1CCn2c(C)nnc2C1)c1ccccc1 (stereo not given) | 643
86 | CCc1ccc(NC(=O)Nc2cccc(-c3nnc4n3CCCC4)c2)cc1 | 736
87 | COc1ccc(Cl)cc1NC(=O)Cn1c2c(c(=O)n(C3CCCCC3)c1=O)CCC2 | 997
88 | CSc1ccc(-c2nc3nc(C)cc(C)n3c2Nc2ccc(C)cc2)cc1 | 810
89 | COCCn1nc2n(c1=O)CCC1(CC2)CCN(C(=O)C2CCCCCC2)CC1 | 710
90 | CCn1cc(-c2nc(CC(=O)Nc3ccc(Cl)cc3F)cs2)c2cccnc21 | 1100
